# Experiments:
# L132 cells = test: In vitro cytotoxicity (MTT assay), L132; format: cell-based, human; details: 50% decrease in cell viability
# Procedure: (§1) The in vitro cytotoxicity of the polyamidoamine-platinum compounds was evaluated using the MTT assay described above and in Example 5.
# (§2) The cell lines used, L132 (human embryonic lung cells), COR L23 (non-small cell lung cancer cells) and H69 (small cell lung cancer), were obtained from European Collection of Cell Cultures, Centre for Applied Biology, Microbiology and Research, Salisbury, Wiltshire UK.
# (§3) Cells were cultured using standard conditions in microtitre plates.
# COR-L23 cells = test: In vitro cytotoxicity (MTT assay), COR-L23; format: cell-based; details: 50% decrease in cell viability
# Procedure: as §1, §2, §3
# H69 cells = test: In vitro cytotoxicity (MTT assay), H69 small cell lung carcinoma; format: cell-based; details: 50% decrease in cell viability
# Procedure: as §1, §2, §3
# [1] = system: L1210 intraperitoneal tumor; test: L1210 i.p. tumor model in mice (survival and toxic deaths); format: in vivo, mice (DBA2)
# Procedure: The data in Table 3 is expressed as the ratio of the mean survival time of treated animals to the mean survival time of the untreated control animals×100 (T/C).
# 10^6 viable cells were administered to DBA2 mice (male 9-12 weeks, 20-30 g) i.p. on day 0. […] Animals were weighed daily and observed twice a day for signs of tumor progression and sacrificed if their body weight fell below 80% of the starting weight or if other severe toxicological problems were seen. At the end of the experiment changes in gross anatomy were noted.
# [2] = system: B16 melanoma intraperitoneal tumor; test: B16 melanoma i.p. tumor model in mice (survival, toxic deaths, body weight); format: in vivo, mice (C57BL/6J); details: single i.p. dose
# Text: Male C57BL/6J mice were inoculated with 10^6 viable B16F10 cells intraperitoneally (i.p). […] Animals were monitored as described above.
# [3] = background; cited from earlier work
compound,measurement,setting,value
"N.N.[Cl][Pt][Cl] [Cisplatin, Cis-diamminedichloroplatinum(II)]","IC50, L132",L132 cells,4.80 ± 1.29 µg/mL
same,"IC50, COR-L23",COR-L23 cells,7.38 ± 2.78 µg/mL
same,"IC50, H-69",H69 cells,45.9 ± 20 µg/mL
same,T/C (mean survival time treated/control × 100),[1]; 2 mg/kg Pt,171
same,T/C (mean survival time treated/control × 100),[1]; 3 mg/kg Pt,64
same,T/C,[2]; 5 mg/kg Pt,134
same,T/C,[2]; 10 mg/kg Pt,78
same,"excretion, in words",[3],rapid excretion via the kidneys
